In brackets after ≈: the same amount, converted by molar mass. Like-named read-outs stand apart in the source and are kept apart here.
Legend:
Streptococcus pneumoniae = assay: Broth microdilution MIC (CLSI) in 4% LHB-CAMHB, Example 1; format: cell-based; settings: Streptococcus pneumoniae
Description: The powder was dissolved in 10 mL DMSO and 1 mL volumes were aliquoted into eppendorf tubes and stored at -80° C. […] Serial dilutions were prepared in 96 well plates were set up in a safety cabinet according to methods standard in the art. Briefly: 90 μL of the working antibiotic solution was added to each well in Column 12 of the plate, and mixed well, before 90 μL was transferred to column 11. The solutions were mixed again, and then transferred to the next column as before, continuing the dilutions through to column 3. Mixing the well requires the pick up and expulsion of 90 μL in each well 3-4 times before picking up and transferring the 90 μL to the next well. […] The bacterial solution was placed into a sterile trough and 10 μL of bacterial solution added into wells 2 through to 12 on each required row (dilution of 1:10, with final concentration of bacteria in wells=5×10^5 CFU/mL). The tray was sealed and incubated at 37° C. for 18-24 h. The purity of bacterial suspension was confirmed by streaking out 50 μL of the 1:20 dilution onto a SBA plate, which was incubated for 37° C. for 18 h and examined. Viable counts were carried out to ensure that the correct concentration of bacteria and been added to the wells. […] The following day the number of colonies on the plates was counted and the average count in 100 μL obtained. The study was multiplied by 10 to obtain a viable bacterial count per mL. Minimum inhibitory concentrations (μg/mL) were determined using the broth microdilution method recommended by the Clinical and Laboratory Standards Institute (CLSI) (Methods for Dilution Antimicrobial Susceptibility Tests for Bacteria That Grow Aerobically; Approved Standard-Seventh Edition. CLSI M7-A7, 2006; Performance Standards for Antimicrobial Disk and Dilution Susceptibility Tests for Bacteria Isolated from Animals; Approved Standard-Second Edition. CLSI […]-A2, 2002; Performance Standards for Antimicrobial Susceptibility Testing; CLSI M2-A9, 2006). […] Bacterial growth (turbidity) in the wells with antimicrobial was compared with the amount of growth (turbidity) in the growth-control well (containing no antimicrobial). All isolates were tested in duplicate, if there was a difference of greater than one two-fold dilution in the results, the test was repeated a third time. The purity of the isolates was closely monitored during testing by subculturing the prepared bacterial inoculum onto SBA. Control organisms (Enterococcus faecalis strain ATCC 29212, S. aureus strain ATCC 29213 and S. pneumoniae strain ATCC 49619) were used throughout the testing to monitor quality control. […] The MIC50, MIC90 and MIC range (minimum and maximum) were calculated for each of the bacterial groups.

Pseudomonas aeruginosa = assay: Broth microdilution MIC, Example 7 (NCL812 and analogues); format: cell-based; settings: Pseudomonas aeruginosa

CC1(C)S[C@@H]2[C@H](NC(=O)[C@H](N)c3ccccc3)C(=O)N2[C@H]1C(=O)O [Ampicillin]
MIC (Streptococcus pneumoniae; Strep. pneumoniae 1, Test 1, read-out: MIC): < 0.25 µg/mL | MIC (Streptococcus pneumoniae; Strep. pneumoniae 1, Test 2, read-out: MIC): < 0.26 µg/mL | MIC (Streptococcus pneumoniae; Strep. pneumoniae 2, Test 1, read-out: MIC): < 0.26 µg/mL | MIC (Streptococcus pneumoniae; Strep. pneumoniae 2, Test 2, read-out: MIC): < 0.25 µg/mL | MIC (Streptococcus pneumoniae; Strep. pneumoniae 3, Test 1, read-out: MIC): < 0.25 µg/mL | MIC (Streptococcus pneumoniae; Strep. pneumoniae 3, Test 2, read-out: MIC): < 0.25 µg/mL | MIC (Streptococcus pneumoniae; Strep. pneumoniae 4, Test 1, read-out: MIC): < 0.25 µg/mL | MIC (Streptococcus pneumoniae; Strep. pneumoniae 4, Test 2, read-out: MIC): < 0.25 µg/mL | MIC (Streptococcus pneumoniae; Strep. pneumoniae 5, Test 1, read-out: MIC): < 0.25 µg/mL | MIC (Streptococcus pneumoniae; Strep. pneumoniae 5, Test 2, read-out: MIC): < 0.26 µg/mL | MIC (Streptococcus pneumoniae; Strep. pneumoniae 6, Test 1, read-out: MIC): < 0.26 µg/mL | MIC (Streptococcus pneumoniae; Strep. pneumoniae 6, Test 2, read-out: MIC): < 0.25 µg/mL | MIC (Streptococcus pneumoniae; Strep. pneumoniae 7, Test 1, read-out: MIC): < 0.25 µg/mL | MIC (Streptococcus pneumoniae; Strep. pneumoniae 7, Test 2, read-out: MIC): < 0.26 µg/mL | MIC (Streptococcus pneumoniae; Strep. pneumoniae 8, Test 1, read-out: MIC): < 0.25 µg/mL | MIC (Streptococcus pneumoniae; Strep. pneumoniae 8, Test 2, read-out: MIC): < 0.25 µg/mL | MIC (Streptococcus pneumoniae; Strep. pneumoniae 9, Test 1, read-out: MIC): < 0.26 µg/mL | MIC (Streptococcus pneumoniae; Strep. pneumoniae 9, Test 2, read-out: MIC): < 0.25 µg/mL | MIC (Streptococcus pneumoniae; Strep. pneumoniae 10, Test 1, read-out: MIC): < 0.06 µg/mL | MIC (Streptococcus pneumoniae; Strep. pneumoniae 10, Test 2, read-out: MIC): < 0.06 µg/mL | MIC (Streptococcus pneumoniae; Strep. pneumoniae 12, Test 1, read-out: MIC): < 0.06 µg/mL | MIC (Streptococcus pneumoniae; Strep. pneumoniae 12, Test 2, read-out: MIC): < 0.06 µg/mL | MIC (Streptococcus pneumoniae; Strep. pneumoniae 13, Test 1, read-out: MIC): < 0.06 µg/mL | MIC (Streptococcus pneumoniae; Strep. pneumoniae 13, Test 2, read-out: MIC): < 0.06 µg/mL | MIC (Streptococcus pneumoniae; Strep. pneumoniae 14, Test 1, read-out: MIC): < 0.06 µg/mL | MIC (Streptococcus pneumoniae; Strep. pneumoniae 14, Test 2, read-out: MIC): < 0.06 µg/mL | MIC (Streptococcus pneumoniae; Strep. pneumoniae 15, Test 1, read-out: MIC): 0.25 µg/mL (≈ 0.715 µM) | MIC (Streptococcus pneumoniae; Strep. pneumoniae 15, Test 2, read-out: MIC): 0.25 µg/mL (≈ 0.715 µM) | MIC (Streptococcus pneumoniae; Strep. pneumoniae 16, Test 1, read-out: MIC): 2 µg/mL (≈ 5.72 µM) | MIC (Streptococcus pneumoniae; Strep. pneumoniae 16, Test 2, read-out: MIC): 2 µg/mL (≈ 5.72 µM) | MIC (Streptococcus pneumoniae; Strep. pneumoniae 18, Test 1, read-out: MIC): 0.25 µg/mL (≈ 0.715 µM) | MIC (Streptococcus pneumoniae; Strep. pneumoniae 18, Test 2, read-out: MIC): 0.25 µg/mL (≈ 0.715 µM) | MIC (Streptococcus pneumoniae; Strep. pneumoniae 19, Test 1, read-out: MIC): 0.25 µg/mL (≈ 0.715 µM) | MIC (Streptococcus pneumoniae; Strep. pneumoniae 19, Test 2, read-out: MIC): 0.25 µg/mL (≈ 0.715 µM) | MIC (Streptococcus pneumoniae; Strep. pneumoniae 20, Test 1, read-out: MIC): 2 µg/mL (≈ 5.72 µM) | MIC (Streptococcus pneumoniae; Strep. pneumoniae 20, Test 2, read-out: MIC): 2 µg/mL (≈ 5.72 µM) | MIC50 (Streptococcus pneumoniae; Str. pneumoniae, 20 isolates): < 0.25 µg/mL | MIC (Streptococcus pneumoniae; Str. pneumoniae, 20 isolates, read-out: MIC mode): < 0.25 µg/mL | MIC (Pseudomonas aeruginosa; 24 h, read-out: MIC (μg/ml) at 24 hours, P. aeruginosa, 24 hours, 1st and 2nd replicate rows): > 128 µg/mL | MIC (Pseudomonas aeruginosa; P. aeruginosa, 1st, read-out: MIC): > 128 µg/mL | MIC (Pseudomonas aeruginosa; P. aeruginosa, 2nd, read-out: MIC): > 128 µg/mL
